Source: publication PMC3530961 (Journal of Medicinal Chemistry, 2012)

What was measured:
recombinant PfTMPK [1] = target: T1, recombinant PfTMPK (Plasmodium falciparum, UniProt Q8I4S1); test: PfTMPK inhibition, coupled assay with pyruvate kinase and lactate dehydrogenase; assay type: biochemical
T1 sequence (Q8I4S1 1-210): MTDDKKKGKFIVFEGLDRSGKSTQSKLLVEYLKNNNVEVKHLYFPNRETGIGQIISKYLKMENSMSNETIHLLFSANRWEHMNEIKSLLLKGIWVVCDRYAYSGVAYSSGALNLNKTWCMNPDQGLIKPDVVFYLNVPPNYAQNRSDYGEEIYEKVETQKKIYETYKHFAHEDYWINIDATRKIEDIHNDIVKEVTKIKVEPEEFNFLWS

P. falciparum 3D7 = test: growth inhibition of P. falciparum, SYBR green assay; assay type: cell-based, Plasmodium falciparum
[2] = plasma protein binding by equilibrium dialysis; assay type: in vitro ADME, mouse; settings: for plasma protein binding (% bound): female CD1 mouse plasma, equilibrium dialysis 5 h, 37 °C
intrinsic clearance = assay type: in vitro ADME, mouse; settings: for microsomal stability (CLi): female CD1 mouse liver microsomes, 0.5 µM compound; for microsomal stability / in vitro DMPK properties, in words: hepatic microsomes
recombinant PfTMPK [3] = target: T1, recombinant PfTMPK; settings: read-out: Km of PfTMPK for TMP; substrate constant; cited from earlier work

| Compound | inhibitory activity against PfTMPK, in words (recombinant PfTMPK [1]) | activity against the parasite, in words (P. falciparum 3D7) | other results |
| --- | --- | --- | --- |
| Cc1cn([C@@H]2C[C@H](O)[C@@H](CNS(=O)(=O)c3ccc([N+](=O)[O-])cc3)O2)c(=O)[nH]c1=O [Compound 9] | no or very low inhibitory activity | – | – |
| Cc1cn([C@@H]2C[C@H](O)[C@@H](CNS(=O)(=O)c3ccc4ccccc4c3)O2)c(=O)[nH]c1=O [Compound 10] | no or very low inhibitory activity | – | – |
| Cc1cn([C@@H]2C[C@H](O)[C@@H](CNC(=O)c3ccc4ccccc4c3)O2)c(=O)[nH]c1=O [Compound 11] | no or very low inhibitory activity | – | – |
| Cc1cn([C@@H]2C[C@H](O)[C@@H](CNC(=O)c3ccc([N+](=O)[O-])cc3)O2)c(=O)[nH]c1=O [Compound 12] | no or very low inhibitory activity | – | – |
| Cc1cn([C@@H]2C[C@H](O)[C@@H](CNCc3ccc([N+](=O)[O-])cc3)O2)c(=O)[nH]c1=O [Compound 13] | no or very low inhibitory activity | – | – |
| COc1ccc(NC(=O)NC[C@H]2O[C@H](n3cc(C)c(=O)[nH]c3=O)C[C@@H]2O)cc1 [Compound 26] | – | – | increase in potency against the parasite compared to compound 17 (P. falciparum 3D7; ratio of EC50 values versus starting compound 17): 10 fold |
| Cc1cn([C@H]2C[C@H](O)[C@@H](CNS(=O)(=O)c3ccc([N+](=O)[O-])cc3)O2)c(=O)[nH]c1=O [Compound 34] | no or very low inhibitory activity | – | – |
| Cc1cn([C@H]2C[C@H](O)[C@@H](CNS(=O)(=O)c3ccc4ccccc4c3)O2)c(=O)[nH]c1=O [Compound 35] | no or very low inhibitory activity | – | – |
| Cc1cn([C@H]2C[C@H](O)[C@@H](CNC(=O)c3ccc4ccccc4c3)O2)c(=O)[nH]c1=O [Compound 36] | no or very low inhibitory activity | – | – |
| Cc1cn([C@H]2C[C@H](O)[C@@H](CNC(=O)c3ccc([N+](=O)[O-])cc3)O2)c(=O)[nH]c1=O [Compound 37] | no or very low inhibitory activity | – | – |
| Cc1cn([C@H]2C[C@H](O)[C@@H](CNCc3ccc([N+](=O)[O-])cc3)O2)c(=O)[nH]c1=O [Compound 38] | no or very low inhibitory activity | – | – |
| Cc1cn([C@@H]2C[C@H](O)[C@@H](CNC(=O)Nc3ccc(-c4ccccc4)cc3)O2)c(=O)[nH]c1=O [Compound 57] | – | sub-micromolar activity | plasma protein binding (% bound) [2]: 92.0 % bound; microsomal stability (CLi) (intrinsic clearance): 1.9 mL/min/g; microsomal stability / in vitro DMPK properties, in words (intrinsic clearance): good in vitro DMPK properties |
| Cc1cn([C@@H]2C[C@H](O)[C@@H](CNC(=O)Nc3ccc(OCc4ccccc4)cc3)O2)c(=O)[nH]c1=O [Compound 60] | – | sub-micromolar activity | plasma protein binding (% bound) [2]: 81.2 % bound; microsomal stability (CLi) (intrinsic clearance): 3 mL/min/g; microsomal stability / in vitro DMPK properties, in words (intrinsic clearance): good in vitro DMPK properties |
| Cc1cn([C@@H]2C[C@H](O)[C@@H](CNC(=O)Nc3ccc(N4CCCCC4)cc3)O2)c(=O)[nH]c1=O [Compound 63] | – | sub-micromolar activity | unbound fraction in plasma, in words [2]: particularly large unbound fraction; plasma protein binding (% bound) [2]: 52.3 % bound; microsomal stability (CLi) (intrinsic clearance): 0.5 mL/min/g; microsomal stability / in vitro DMPK properties, in words (intrinsic clearance): good in vitro DMPK properties |
| Cc1cn([C@@H]2C[C@H](O)[C@@H](CNC(=O)Nc3ccc(Oc4ccccc4)cc3)O2)c(=O)[nH]c1=O [Compound 66] | – | sub-micromolar activity | plasma protein binding (% bound) [2]: 90.5 % bound; microsomal stability (CLi) (intrinsic clearance): 1.8 mL/min/g; microsomal stability / in vitro DMPK properties, in words (intrinsic clearance): good in vitro DMPK properties |
| Cc1cn([C@@H]2C[C@H](O)[C@@H](CNC(=O)Nc3ccc(OCc4ccccc4Cl)cc3)O2)c(=O)[nH]c1=O [Compound 84, N-(5′-Deoxy-α-thymidin-5′-yl)-N′-(4-(2-chlorobenzyloxy)phenyl)urea] | – | sub-micromolar activity | plasma protein binding (% bound) [2]: 94.1 % bound; microsomal stability (CLi) (intrinsic clearance): 6 mL/min/g; microsomal stability / in vitro DMPK properties, in words (intrinsic clearance): rapid turnover |
| Cc1cn([C@@H]2C[C@H](O)[C@@H](CNC(=O)Nc3ccc(OCc4cccc(Cl)c4)cc3)O2)c(=O)[nH]c1=O [Compound 85, N-(5′-Deoxy-α-thymidin-5′-yl)-N′-(4-(3-chlorobenzyloxy)phenyl)urea] | – | sub-micromolar activity | – |
| Cc1cn([C@@H]2C[C@H](O)[C@@H](CNC(=O)Nc3ccc(OCc4ccc(Cl)cc4)cc3)O2)c(=O)[nH]c1=O [Compound 86, N-(5′-Deoxy-α-thymidin-5′-yl)-N′-(4-(4-chlorobenzyloxy)phenyl)urea] | – | sub-micromolar activity | – |
| COc1ccc(COc2ccc(NC(=O)NC[C@H]3O[C@H](n4cc(C)c(=O)[nH]c4=O)C[C@@H]3O)cc2)cc1 [Compound 87, N-(5′-Deoxy-α-thymidin-5′-yl)-N′-(4-(4-methyoxybenzyloxy)phenyl)urea] | – | sub-micromolar activity | – |
| Cc1cn([C@H]2C[C@H](O)[C@@H](CNC(=O)Nc3ccc(OCc4ccccc4Cl)cc3)O2)c(=O)[nH]c1=O [Compound 89] | – | sub-micromolar activity | drop in activity of β-derivative relative to α-derivative 84 (P. falciparum 3D7): 20 fold |
| Cc1cn([C@H]2C[C@H](O)[C@@H](COP(=O)(O)O)O2)c(=O)[nH]c1=O [TMP, thymidine monophosphate] | – | – | Km (recombinant PfTMPK [3]): 11 µM |
